Data as given in PMC10197885, “Anomanolide C suppresses tumor progression and metastasis by ubiquitinating GPX4-driven autophagy-dependent ferroptosis in triple negative breast cancer” (International Journal of Biological Sciences, 2023).

Target: T1, GPX4 (Homo sapiens, UniProt P36969)
T1 sequence (P36969 28-197): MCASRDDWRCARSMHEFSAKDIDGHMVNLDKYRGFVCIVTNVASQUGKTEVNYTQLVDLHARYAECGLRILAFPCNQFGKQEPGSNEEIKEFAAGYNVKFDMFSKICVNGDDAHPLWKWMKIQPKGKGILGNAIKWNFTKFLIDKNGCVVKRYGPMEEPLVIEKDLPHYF
Experiment: SPR (Biacore, GPX4 coupled to CM5 chip); supported by CETSA in MDA-MB-231 cells
Assay type: binding
From the text: SPR (Biacore, GPX4 coupled to CM5 chip); supported by CETSA in MDA-MB-231 cells on GPX4 | AC binds to GPX4 protein as shown by surface plasmon resonance (SPR) measurements.

C[C@@]12CC([C@@]3(O)[C@H](O)C[C@H]4[C@@H]5C[C@H]6O[C@]67[C@@H](O)C=CC(=O)[C@]7(C)[C@H]5CC[C@@]43C)[C@@H](C1)OC(=O)[C@]2(C)O (stereo partly shown) [AC, Anomanolide C]
Kd: ~24 µM
